pIC50: −log10 of the molar value. Where two headings read alike, the source gives them in different places. Marks after values point to notes of the source that are not given here.
How the values were obtained:
CD1 mice [1] = assay: Anticonvulsant activity, maximal electroshock seizure (MES) test; assay type: in vivo; settings: Mus musculus, po.
Method: (§1) The anti-seizure activity of some of the compounds of the present invention was measured using the electroshock test (J. Pharmacol. Exp. Ther. 106:319 (1952)) and the results are shown in Table 3. The spasmolytic activity of the compounds of the present invention was investigated by using e.g., pentetrazole (J. Pharmacol. Exp. Ther. 108:168 (1953)), strychnine (J. Pharmacol. Exp. Ther. 129:75 (1960)), bemegrid, nicotine, bicuculline, 4-aminopyridine and mercapto-propionic acid for inducing the clonic-tonic seizures and lethality. The investigated compounds were administered orally in three doses using 10 male CD1 mice/dose, usually 60 min before the induction of seizures.

Lewis rats [2] = assay: Autoimmune encephalomyelitis model, neurological (clinical) symptoms; assay type: in vivo; settings: for Neurological symptoms (change, %) / change in vivo at 7.5 mg/kg: 7.5 mg/kg ip.; for Neurological symptoms (change, %): day 24 after immunization; for change in vivo at 1.875 mg/kg / change in vivo at 3.75 mg/kg / change in vivo at 7.5 mg/kg: Rattus norvegicus, ip, read-out: Neurological symptoms (change compared to controls, %); for change in vivo at 1.875 mg/kg: 1.875 mg/kg ip.; for change in vivo at 3.75 mg/kg: 3.75 mg/kg ip.
Method: The compounds were administered intraperitoneally twice a day for 8 days, starting on day 10 after immunization and with an observation period until symptoms were present. 5-15 animals were used in each group. Their weights were 160-180 g (Lewis rats, female) and 180-220 g (Lewis rats, male). The activity of the compounds was determined according to the symptom score values, and compared to those of the control group (see Table 6). Histopathological investigations were carried out on the brain stem, the spinal cord, and the sciatic nerve (Gijbels et al., J. Clin. Invest. 94:2177 (1994)) using 5-10 animal/group.
(§2) Compounds of the invention were further investigated in the autoimmune encephalomyelitis model in rats as outlined in this description before, with the variance that 10 animals were used in each group, of weights 140-160 g (Lewis rats, female).

Lewis rats [3] = assay: Autoimmune encephalomyelitis model, histological symptoms; assay type: in vivo; settings: 7.5 mg/kg ip., day 24 after immunization
Method: 5-15 animals were used in each group. Their weights were 160-180 g (Lewis rats, female) and 180-220 g (Lewis rats, male). The activity of the compounds was determined according to the symptom score values, and compared to those of the control group (see Table 6). Histopathological investigations were carried out on the brain stem, the spinal cord, and the sciatic nerve (Gijbels et al., J. Clin. Invest. 94:2177 (1994)) using 5-10 animal/group.
as §2

rats = assay: Inhibition of focal ischemia, middle cerebral artery occlusion (MCAO) test; assay type: in vivo
Method: The focal anti-ischemic activity of the compounds of formula (I) or (II) of the present invention was measured by the “middle cerebral artery occlusion” (MCAO) test (Bartus Stroke 11:2265 (1994) and Sydserff et al, Brit. J. Pharmacol. 114:1631 (1995)). […] After a histological process (TTC staining) 24 h later, the infarcted area was determined by a computer assisted scanner program and was compared to the results obtained in a control group treated with the vehicle.

AMPA receptors = assay: Inhibition of AMPA induced spreading depression in isolated chicken retina; assay type: cell-based; settings: AMPA (5 μM)
Method: (§3) In the first model the spreading depression caused by glutamate agonists (i.e., AMPA or kainate) was studied, while in the second one the transmembrane ion-current induced by the activation of the AMPA/kainate receptors was measured directly.
Inhibition of AMPA Induced “Spreading Depression” in Isolated Chicken Retina—
The AMPA antagonistic effect of the compounds of formula (I) or (II) was studied in the in vitro “spreading depression” model (Sheardown Brain Res. 607:189 (1993)). The AMPA antagonists prolong the latency of the development of the “spreading depression” caused by AMPA (5 μM).

CD1 mice [4] = assay: Muscle relaxant activity, inclined screen test; assay type: in vivo; settings: Mus musculus, ip
CD1 mice [5] = assay: Anticonvulsant activity, bemegride induced seizures; assay type: in vivo; settings: Mus musculus; po.; read-out: Bemegride ED50
Method: as §1

AMPA/kainate receptors = assay: Inhibition of AMPA induced whole-cell current in acutely isolated cerebellar Purkinje cells (patch clamp); assay type: cell-based; settings: 5 μM AMPA, read-out: Inhibition of the ion-currents caused by 5 μM AMPA, IC50
Method: as §3
The activity of the compounds of the present invention was studied on acutely isolated cerebellar Purkinje cells by measuring the whole-cell current induced by 5 μM AMPA according for example to the method described by Bleakman et al (Neuropharmacology 12:1689 (1996)).

CD1 mice [6] = assay: Anticonvulsant activity, 4-aminopyridine induced seizures; assay type: in vivo; settings: Mus musculus; po.; read-out: 4-AP ED50
Method: as §1

CD1 mice [7] = assay: Anticonvulsant activity, bicuculline induced seizures; assay type: in vivo; settings: Mus musculus; po.; read-out: Bicuculline ED50
Method: as §1

CD1 mice [8] = assay: Anticonvulsant activity, nicotine induced seizures; assay type: in vivo; settings: Mus musculus; po.
Method: as §1

CD1 mice [9] = assay: Anticonvulsant activity, strychnine induced seizures; assay type: in vivo; settings: Mus musculus; po.; read-out: Strychnine ED50
Method: as §1

CD1 mice [10] = assay: Anticonvulsant activity, pentetrazole induced seizures; assay type: in vivo; settings: Mus musculus; po.; read-out: Pentetrazol ED50
Method: as §1

CD1 mice [11] = assay: Anticonvulsant activity, 3-mercapto-propionic acid induced seizures; assay type: in vivo; settings: Mus musculus; po.; read-out: 3-MPA ED50
Method: as §1

CD1 mice [12] = assay: Muscle relaxant activity, rotarod test; assay type: in vivo; settings: Mus musculus, ip
CD1 mice [13] = assay: Anti-tremor effect, oxotremorine induced tremor; assay type: in vivo; settings: Mus musculus; po., Litchfield-Wilcoxon, limits in brackets; read-out: ED50, tremor induced by Oxotremorin 1 mg/kg ip.
CD1 mice [14] = assay: Anti-tremor effect, GYKI 20039 induced tremor; assay type: in vivo; settings: Mus musculus; po., Litchfield-Wilcoxon, limits in brackets; read-out: ED50, tremor induced by GYKI 20039 10 mg/kg ip.
[15] = 0.5 h, 30′, read-out: MES 30′ ED50
[16] = 1 h, 60 min before induction, read-out: MES (MES 60′) ED50
[17] = 2 mg/kg iv. 6x in every 30 min, first treatment 180 min after occlusion

SMILES | ED50 (CD1 mice [1]; [15]) [mg/kg] | ED50 (CD1 mice [1]; [16]) [mg/kg] | change in vivo at 3.75 mg/kg (Lewis rats [2]; female rats, 0-8 day) [%] | change in vivo at 3.75 mg/kg (Lewis rats [2]; female rats, 0-14 day) [%] | change in vivo at 3.75 mg/kg (Lewis rats [2]; male rats, 0-8 day) [%] | change in vivo at 3.75 mg/kg (Lewis rats [2]; male rats, 0-14 day) [%] | change in vivo at 7.5 mg/kg (Lewis rats [2]; female rats, 0-8 day) [%] | change in vivo at 7.5 mg/kg (Lewis rats [2]; female rats, 0-14 day) [%] | pIC50 (AMPA receptors) | ED50 (CD1 mice [4]) [mg/kg] | ED50 (CD1 mice [5]) [mg/kg] | pIC50 (AMPA/kainate receptors) | ED50 (CD1 mice [6]) [mg/kg] | ED50 (CD1 mice [7]) [mg/kg] | ED50 (CD1 mice [8]) [mg/kg] | ED50 (CD1 mice [9]) [mg/kg] | ED50 (CD1 mice [10]) [mg/kg] | ED50 (CD1 mice [11]) [mg/kg] | ED50 (CD1 mice [12]) [mg/kg] | melting point [°C] | other results
C[C@@H]1Cc2cc3c(cc2C(c2ccc(N)cc2)=NN1c1nccs1)OCO3 [Example 61, (R)-5-(4-Aminophenyl)-8-methyl-7-(2-thiazolyl)-8,9-dihydro-7H-1,3-dioxolo[4,5-h][2,3]benzodiazepine] | 11.5 | 13.1 | -44 | -48 | -44 | -46 | -56 | -53 | 5.30 to 6.00 | 10.7 | 34.4 | 6.31 | 17.6 | 31 | 59.3 | 35.4 | 32.5 | 11 | 5.4 | 125 to 130 | Neurological symptoms (change, %) (Lewis rats [2]; female rats): −53%; Neurological symptoms (change, %) (Lewis rats [2]; male rats): −54%; change in vivo at 1.875 mg/kg (Lewis rats [2]; female rats, 0-8 day): -18%; change in vivo at 1.875 mg/kg (Lewis rats [2]; female rats, 0-14 day): -7%; change in vivo at 1.875 mg/kg (Lewis rats [2]; male rats, 0-8 day): 13%; change in vivo at 1.875 mg/kg (Lewis rats [2]; male rats, 0-14 day): 5%; change in vivo at 7.5 mg/kg (Lewis rats [2]; male rats, 0-8 day): -60%; change in vivo at 7.5 mg/kg (Lewis rats [2]; male rats, 0-14 day): -63%; Activity compared to the reference compound (histopathological and pharmacological investigations) (Lewis rats [2]; result in words): more active than the reference compound GYKI 53773; Histological symptoms (change, %) (Lewis rats [3]; female rats): −5%; Histological symptoms (change, %) (Lewis rats [3]; male rats): −20%; Decrease of the infracted area in % compared to that of the control (rats; 1 mg/kg iv. 6x in every 30 min, first treatment 120 min after occlusion): 63** %; Decrease of the infracted area in % compared to that of the control (rats; 1 mg/kg iv. 6x in every 30 min, first treatment 180 min after occlusion): 16%; Decrease of the infracted area in % compared to that of the control (rats; [17]): 46* %; Neuroprotective activity when administered 3 h after the occlusion (rats; result in words): significant activity
C[C@@H]1Cc2cc3c(cc2C(c2ccc(N)cc2)=NN1C1=NCCS1)OCO3 [Example 69, (R)-5-(4-Aminophenyl)-7-(4,5-dihydro-thiazol-2-yl)-8-methyl-8,9-dihydro-7H-1,3-dioxolo-[4,5-h][2,3]benzodiazepine] | 8.7 | 14.7 | 43 | 58 | 35 | -40 | -29 | -24 | 6.05 | 12.2 | 33.3 | 6.38 | 16.6 | 18.1 | 16.8 | 27.7 | 46.9 | 34.2 | 1.2 | 148 to 150 | change in vivo at 7.5 mg/kg (Lewis rats [2]; male rats, 0-8 day): -51%; change in vivo at 7.5 mg/kg (Lewis rats [2]; male rats, 0-14 day): -50%; Decrease of the infracted area in % compared to that of the control (rats; [17]): 28%
C[C@@H]1Cc2cc3c(cc2C(c2ccc(N)cc2)=NN1c1nncs1)OCO3 [Example 84, (R)-5-(4-Aminophenyl)-8-methyl-7-(1,3,4-thiadiazol-2-yl)-8,9-dihydro-7H-1,3-dioxolo-[4,5-h][2,3]benzodiazepine] | 10 to 15 | 12.5 |  |  |  |  |  |  | 6.07 | 12.8 | 16.7 | 7.05 | 16.6 | 17 | 77.2 | 18.2 | 17.1 | 6.8 | 1.4 | 219 to 220 | 
Cc1cc(C2=NN(c3nncs3)[C@H](C)Cc3cc4c(cc32)OCO4)ccc1N [Example 167, (R)-5-(4-Amino-3-methylphenyl)-8-methyl-7-(1,3,4-thiadiazol-2-yl)-8,9-dihydro-7H-1,3-dioxolo-[4,5-h][2,3]benzodiazepine] | 4.78 | 5.85 |  |  |  |  |  |  | 7.19 | 4.24 | 8.33 | 7.15 | 10.8 | 12.7 |  | 10.5 | 9.66 | 10.3 | 0.8 | 143 to 148 | ED50 (CD1 mice [13]): 4.81 mg/kg; ED50 (CD1 mice [14]): 7.73 mg/kg
